Values of other authors, collected in patent US7354746B1, “Method for producing optically active IHOG and monatin” (Ajinomoto Co., Inc., priority 2006, dated 2008).
Where two headings read alike, the source gives them in different places.

Conditions: for Sweetness (vs. Sucrose): sweetness intensity relative to sucrose

| Structure (SMILES) | Sweetness rank among the 4 types of monatin isomers (comparison of the 4 monatin isomers) | Sweetness (vs. Sucrose) | Sweetness (vs. Sucrose) (listed as (2R, 4R)-monatin) |
| --- | --- | --- | --- |
| N[C@H](CC(O)(Cc1c[nH]c2ccccc12)C(=O)O)C(=O)O (stereo partly drawn) [2R, 4R, (2R, 4R)-monatin] | highest sweetness | 2700 times | 2,700 times |
| N[C@H](C[C@@](O)(Cc1c[nH]c2ccccc12)C(=O)O)C(=O)O [2R, 4S] |  | 1300 times |  |
| N[C@@H](C[C@](O)(Cc1c[nH]c2ccccc12)C(=O)O)C(=O)O [2S, 4R, (2S, 4R)-monatin] |  | 300 times |  |
| NC(CC(O)(Cc1c[nH]c2ccccc12)C(=O)O)C(=O)O [2S, 4S, (2S, 4S)-monatin] |  | 50 times |  |
